Laboratory results: article PMC10447463, “Data-mining unveils structure–property–activity correlation of viral infectivity enhancing self-assembling peptides” (Nature Communications, 2023)
Where two headings read alike, the source gives them in different places.

Experiments:
[1] = format: physicochemical; design: key to Fibril / Fibril Formation / TEM 2cat / Fibril: 1 = fibrils present; 0 non-fibrillar structures; conditions: for Fibril / Fibril Formation: 1 mg/mL, uranyl acetate stain, qualitative
[2] = β-sheet content by ATR-FT-IR; format: physicochemical; conditions: for b -sheet / %: Fig. S7 panel A, β-sheet content by ATR-FT-IR; for beta sheet: peptides with TEM 2cat 0
Procedure: For ATR FT–IR spectroscopy measurements, 200 µL of the respective 1 mg/mL PNF solution was lyophilized and the resulting powder used for measurement. All spectra were recorded on a Bruker Tensor 27 spectrometer with a diamond crystal as ATR element (PIKE MiracleTM, spectral resolution 2 cm^-1). Every sample was measured with 64 scans. Data were analyzed with OriginLab software and calculation of β–sheet content was conducted according to a previous report. TEM. For TEM measurements 5 µL of PNF fibrils (1 mg/mL) were placed on copper grids coated with carbon and formvar layer (300 mesh, Plano GmbH). After 10 min incubation time, the grids were staining with 4% uranyl acetate solution for 2.5 min and washed with water. Measurements were performed on a Jeol 1400 electron microscope with 120 kV acceleration voltage. CR Assay. For the determination of the amount of peptide monomer converting into nanostructures the amine reactive dye fluorescamine was used analogous to a previous reported protocol. Briefly, 100 µL of the preformed PNF solution was centrifuged in a Vivaspin 500 tube (3 kDa MWCO) to separate fibers from free peptide monomer (16200 x g, 4 °C, 45 min). The filtrate and 100 μL of the non-filtered PNF sample were lyophilized and dissolved in 30 μL DMSO. 10 μL of the filtrate and non-filtered DMSO samples were submitted in a black UV Star® 384 microliter well–plates (Greiner bio–one) and 3 μL of the fluorescamine solution (10 mg/mL, DMSO) was added to measure the fluorescence enhancement. After 20 min of incubation at RT, fluorescence was recorded on an Infinite® M1000 PRO microplate reader (Tecan) at λem = 470 nm upon excitation at λex = 365 nm with 10 nm bandwidths and multiple reads per well (3×3). Measurements were repeated in triplicates and averaged with standard deviation. All values were calculated as n-fold fluorescence enhancement (DMSO only as a reference was set to 1). The conversion rate CR was defined according to the equation Eq. (3).3 CR=100−100×fluorescenceintensityfiltrate/fluorescenceintensityoriginal[%]

[3] = Zeta-potential measurement; format: physicochemical
Method in brief: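 In this measurement, peptides aggregated for a day at RT in phosphate-buffered saline (pH 7.4, 1 mg/mL) are diluted into 1 mM potassium chloride, and the electrophoretic mobility is translated into zeta potential by Smoluchowski's relation.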

[4] = Fig S10 panel D, fibril category by TEM
[5] = TEM, 1 = fibrils present, 0 = non-fibrillar
[6] = TEM, 1 = fibrils present, 0 = non-fibrillar structures
[7] = category: fibrils present or non-fibrillar
[8] = zeta potential of peptide assemblies
[9] = zeta-potential of peptide, source data of Figure 2C
[10] = zeta-potential of the peptide assemblies, mean, Figure 3A source data
[11] = FigS12 panel A, fibril category by TEM

Row | Substance | TEM 2cat [1, 4] | Fibril / Fibril Formation ([1]; TEM) | Fibril [1, 5] | Fibril [1, 6] | TEM 2cat [1, 7] | b -sheet / % [2] [%] | Zeta-Pot. [3, 8] | Zeta-Potential / mV [3, 9] [mV] | Zeta-Potential / mV [3, 10] [mV] | TEM 2cat [1, 11] | Fibril ([1]; FigS12 panel B, TEM) | Fibril ([1]; Fig S10 panel E) | Zeta-Pot. [3] | TEM 2cat ([1]; Fig S10 panel D) | ß-sheet / % ([2]; ATR-FT-IR of lyophilised 1 mg/mL PNF solution, peak integral ratio 1625-1635 cm-1, measured once) [%] | Zeta pot. / mV ([3]; 1 mg/mL in PBS pH 7.4 from 10 mg/mL DMSO stock, 1 d RT, 60 µL diluted in 600 µL 1 mM KCl, Zetasizer Nano ZS, Smoluchowski, mean of triplicate) [mV] | beta sheet [2]
1 | ILKNLSRSRKIKIQIC | 1 | 1 | 1 | 1 | 1 | 37.6 | 18 | 19.25 | 18 | – | – | – | – | – | – | – | –
2 | KFKFEFEF | 1 | 1 | 1 | 1 | – | 40.95 | -2.55 | -2.87 | -2.55 | 1 | 1 | – | – | – | – | – | –
3 | KFKFQFFF | 1 | 1 | 1 | 1 | 1 | 49.11 | 13.27 | 15.57 | 13.27 | – | – | 1 | – | – | – | – | –
4 | KVKVQVV | 0 | 0 | 0 | 0 | – | 45.1 | -7.92 | -4.675 | -7.92 | 0 | 0 | – | – | – | – | – | –
5 | KIKIQIMWNQ | 1 | 1 | 1 | 1 | 1 | 41.4 | – | 4.42 | 2.96 | – | – | – | 2.96 | – | – | – | –
6 | CKIW | 0 | 0 | 0 | 0 | – | 46.02 | – | -2.772 | -3.71 | 0 | 0 | 0 | -3.71 | – | – | – | –
7 | KIKIQII | 1 | 1 | 1 | 1 | – | 44.64 | 5.61 | 6.302 | 5.61 | 1 | 1 | – | – | – | – | – | –
8 | CKIKQIINMWQ | 1 | 1 | 1 | 1 | 1 | 51 | 13.4 | 10.55 | 13.4 | – | – | 1 | – | – | – | – | –
9 | MKIKIQINM | 1 | 1 | 1 | 1 | 1 | 38.6306 | 9.13 | 9.332 | 9.13 | – | – | – | – | – | – | – | –
10 | QCKFKQFFNMWQ | – | 1 | 1 | 1 | 1 | 41.78 | – | 11.04 | 9.59 | – | – | 1 | 9.587 | 1 | – | – | –
11 | CKIKIQIRGD | 1 | 1 | 1 | 1 | 1 | 58.14 | 7.157 | 7.157 | 7.16 | – | – | 1 | – | – | – | – | –
12 | KFKFQFF | 1 | 1 | 1 | 1 | 1 | 48.35 | 6.903 | 6.903 | 6.9 | – | – | – | – | – | – | – | –
13 | KFKFKFQF | 1 | 1 | 1 | 1 | 1 | 39.76 | 15.2 | 16.32 | 15.2 | – | – | 1 | – | – | – | – | –
14 | QCKFKQFFNM | – | 1 | 1 | 1 | 1 | 41.8396 | – | 15.12 | 13.67 | – | – | 1 | 13.67 | 1 | – | – | –
15 | CSISIQINM | 1 | 1 | 1 | 1 | 1 | 55.93 | -19.4 | -21.18 | -19.4 | – | – | 1 | – | – | – | – | –
16 | KAKAQANM | 0 | 0 | 0 | 0 | – | 32.8491 | -2.62 | -2.065 | -2.62 | 0 | 0 | – | – | – | 33 | -2.6 | –
17 | EIEIQINMWQ | 0 | 0 | 0 | 0 | 0 | 53.91 | – | -19.93 | -19.13 | – | – | 0 | -19.13 | – | – | – | 54
18 | IKVAVKIKIQINM | 1 | 1 | 1 | 1 | 1 | 58.1 | – | 14.18 | 14.5 | – | – | – | 14.5 | – | – | – | –
19 | KIKIKIKIWW | 0 | 0 | 0 | 0 | 0 | 48.82 | 15.4 | 15.83 | 15.4 | – | – | 0 | – | – | – | – | 49
20 | KIKIKIKI | 0 | 0 | 0 | 0 | – | 40.46 | 5.46 | 5.997 | 5.46 | 0 | 0 | – | – | – | – | – | –
21 | ILKNLSRSRKIKIQINMWQ | 1 | 1 | 1 | 1 | 1 | 39.13 | – | 17.9 | 19.2 | – | – | – | 19.2 | – | – | – | –
22 | CKIKIQINMW | 1 | 1 | 1 | 1 | 1 | 42.9134 | – | 18.43 | 18.3 | – | – | – | 18.3 | – | – | – | –
23 | QCKIKIQINM | – | 1 | 1 | 1 | 1 | 37.11 | – | 11.15 | 11.37 | – | – | 1 | 11.37 | 1 | – | – | –
